Source: ChEMBL document CHEMBL6087389, “Hydrazone-Functionalized trans-A2B-Corroles: Effective Synergy in Photodynamic Therapy of Lung Cancer” (J Med Chem, 2024)
Each block holds one compound with its values, some of them ahead of it. Active and inactive are the calls of the source. The calls are words filed in the database; no cut-off is given here.

How the values were obtained:
[1] = Fluorescence property of the compound in THF assessed as fluorescence quantum yield by photoluminescence quantum yield spectrometer; type: physicochemical
[2] = Fluorescence property of the compound in DMSO assessed as fluorescence quantum yield by photoluminescence quantum yield spectrometer; type: physicochemical
[3] = Induction of singlet oxygen generation in THF assessed as singlet oxygen quantum yield by comparative photoluminescence method; type: functional
[4] = Phototoxicity against human A549 cells assessed as reduction in cell viability preincubated for 24 hrs followed by 7.5 to 10 mW/cm^-2 red light irradiation and measured after 24 hrs by MTT assay; type: functional, cell-based; conditions: A549, light or radiation study
[5] = Phototoxicity against human NCI-H1299 cells assessed as reduction in cell viability preincubated for 24 hrs followed by 7.5 to 10 mW/cm^-2 red light irradiation and measured after 24 hrs by MTT assay; type: functional, cell-based; conditions: NCI-H1299, light or radiation study
A549 [6] = experiment: Dark toxicity against human A549 cells assessed as reduction in metabolic activity at <1 uM incubated for 4 hrs by MTT assay; type: cell-based; conditions: a549, 4 h
NCI-H1299 [7] = experiment: Dark toxicity against human NCI-H1299 cells assessed as reduction in metabolic activity at <1 uM incubated for 4 hrs by MTT assay; type: cell-based; conditions: nci-h1299, 4 h
A549 [8] = experiment: Dark toxicity against human A549 cells assessed as reduction in metabolic activity at 10 uM incubated for 4 hrs by MTT assay; type: cell-based; set-up: scale not given: the % may be the effect or the level left; conditions: a549, 4 h
NCI-H1299 [9] = experiment: Dark toxicity against human NCI-H1299 cells assessed as reduction in metabolic activity at 10 uM incubated for 4 hrs by MTT assay; type: cell-based; set-up: scale not given: the % may be the effect or the level left; conditions: nci-h1299, 4 h
A549 [10] = experiment: Reduction in hydrogen peroxide production in human A549 cells irradiated with 7.5 to 10 mW/cm^-2 red light for 24 hrs at 100 to 250 nM measured after 2 hrs by DHE and DCFH2-DA staining based fluorimetric analysis; type: functional, cell-based; conditions: dose 100-250 nM
NCI-H1299 [11] = experiment: Reduction in hydrogen peroxide production in human NCI-H1299 cells irradiated with 7.5 to 10 mW/cm^-2 red light for 24 hrs at 0 to 250 nM incubated for 2 hrs by DHE and DCFH2-DA staining based fluorimetric analysis; type: functional, cell-based; conditions: dose 0-250 nM
NCI-H1299 [12] = experiment: Induction of superoxide anion production in human NCI-H1299 cells irradiated with 7.5 to 10 mW/cm^-2 red light for 24 hrs at 100 to 250 nM incubated for 2 hrs by DHE and DCFH2-DA staining based fluorimetric analysis; type: functional, cell-based; conditions: dose 100-250 nM
A549 [13] = experiment: Induction of superoxide anion production in human A549 cells irradiated with 7.5 to 10 mW/cm^-2 red light for 24 hrs at 100 to 250 nM incubated for 2 hrs by DHE and DCFH2-DA staining based fluorimetric analysis; type: functional, cell-based; conditions: dose 100-250 nM
A549 [14] = experiment: Induction of apoptosis in human A549 cells assessed as reduction in viable cells at 500 nM preincubated for 24 hrs followed by irradiated with 7.5 to 10 mW/cm^-2 red light for 24 hrs by Annexin V and propidium iodide staining based flow cytometry relative to control; type: functional; conditions: time 48 hrs
A549 [15] = experiment: Induction of apoptosis in human A549 cells assessed as reduction in viable cells at 100 nM preincubated for 24 hrs followed by irradiated with 7.5 to 10 mW/cm^-2 red light for 24 hrs by Annexin V and propidium iodide staining based flow cytometry relative to control; type: functional; conditions: time 48 hrs
A549 [16] = experiment: Induction of apoptosis in human A549 cells assessed as increase in apoptotic cells at 100 nM preincubated for 24 hrs followed by irradiated with 7.5 to 10 mW/cm^-2 red light for 24 hrs by Annexin V and propidium iodide staining based flow cytometry relative to control; type: functional; conditions: time 48 hrs
A549 [17] = experiment: Induction of apoptosis in human A549 cells assessed as increase in apoptotic cells at 500 nM preincubated for 24 hrs followed by irradiated with 7.5 to 10 mW/cm^-2 red light for 24 hrs by Annexin V and propidium iodide staining based flow cytometry relative to control; type: functional; conditions: time 48 hrs
A549 [18] = experiment: Induction of apoptosis in human A549 cells assessed as late apoptotic cells at 100 nM preincubated for 24 hrs followed by irradiated with 7.5 to 10 mW/cm^-2 red light for 24 hrs by Annexin V and propidium iodide staining based flow cytometry relative to control; type: functional; conditions: time 48 hrs
A549 [19] = experiment: Induction of apoptosis in human A549 cells assessed as late apoptotic cells at 500 nM preincubated for 24 hrs followed by irradiated with 7.5 to 10 mW/cm^-2 red light for 24 hrs by Annexin V and propidium iodide staining based flow cytometry relative to control; type: functional; conditions: time 48 hrs
A549 [20] = experiment: Induction of apoptosis in human A549 cells assessed as necrotic cells at 100 nM preincubated for 24 hrs followed by irradiated with 7.5 to 10 mW/cm^-2 red light for 24 hrs by Annexin V and propidium iodide staining based flow cytometry relative to control; type: functional; conditions: time 48 hrs
A549 [21] = experiment: Induction of apoptosis in human A549 cells assessed as necrotic cells at 500 nM preincubated for 24 hrs followed by irradiated with 7.5 to 10 mW/cm^-2 red light for 24 hrs by Annexin V and propidium iodide staining based flow cytometry relative to control; type: functional; conditions: time 48 hrs
A549 [22] = experiment: Photocytotoxicity in human A549 cells assessed as metabolic activity in presence of sodium azide measured preincubated for 24 hrs followed by irradiated with 7.5 to 10 mW/cm^-2 red light for 24 hrs by MTT assay; type: functional, cell-based; conditions: A549, light or radiation study
NCI-H1299 [23] = experiment: Induction of apoptosis in human NCI-H1299 cells assessed as reduction in viability at 100 to 500 nM preincubated for 24 hrs followed by irradiated with 7.5 to 10 mW/cm^-2 red light for 24 hrs by Annexin V and propidium iodide staining based flow cytometry relative to control; type: functional; conditions: dose 100-500 nM, time 48 hrs
NCI-H1299 [24] = experiment: Induction of apoptosis in human NCI-H1299 cells assessed as late apoptotic/necrotic cells at 100 nM preincubated for 24 hrs followed by irradiated with 7.5 to 10 mW/cm^-2 red light for 24 hrs by Annexin V and propidium iodide staining based flow cytometry relative to control; type: functional; conditions: time 48 hrs
NCI-H1299 [25] = experiment: Induction of apoptosis in human NCI-H1299 cells assessed as late apoptotic/necrotic cells at 500 nM preincubated for 24 hrs followed by irradiated with 7.5 to 10 mW/cm^-2 red light for 24 hrs by Annexin V and propidium iodide staining based flow cytometry relative to control; type: functional; conditions: time 48 hrs
NCI-H1299 [26] = experiment: Induction of apoptosis in human NCI-H1299 cells assessed as early apoptotic cells at 100 nM preincubated for 24 hrs followed by irradiated with 7.5 to 10 mW/cm^-2 red light for 24 hrs by Annexin V and propidium iodide staining based flow cytometry relative to control; type: functional; conditions: time 48 hrs
NCI-H1299 [27] = experiment: Induction of apoptosis in human NCI-H1299 cells assessed as early apoptotic cells at 500 nM preincubated for 24 hrs followed by irradiated with 7.5 to 10 mW/cm^-2 red light for 24 hrs by Annexin V and propidium iodide staining based flow cytometry relative to control; type: functional; conditions: time 48 hrs
NCI-H1299 [28] = experiment: Induction of apoptosis in human NCI-H1299 cells assessed as appearance of necrosis at 100 to 250 nM preincubated for 24 hrs followed by irradiated with 7.5 to 10 mW/cm^-2 red light for 24 hr by May-Grunwald/Giemsa staining by light microscopic analysis; type: functional, cell-based; conditions: dose 100-250 nM, time 48.0 hrs
Mitochondrial membrane [29] = experiment: Induction of mitochondrial membrane depolarization in human A549 cells assessed as increase in monomer to aggregate ratio at 100 nM preincubated for 15 mins irradiated with 7.5 to 10 mW/cm^-2 red light by JC-1 fluorescent probe based flow cytometric analysis (reference value: 24.7+/-6.9); type: cell membranes
Mitochondrial membrane [30] = experiment: Induction of mitochondrial membrane depolarization in human A549 cells assessed as increase in monomer to aggregate ratio at 250 nM preincubated for 15 mins irradiated with 7.5 to 10 mW/cm^-2 red light by JC-1 fluorescent probe based flow cytometric analysis (reference value: 24.7+/-6.9); type: cell membranes
Mitochondrial membrane [31] = experiment: Induction of mitochondrial membrane depolarization in human NCI-H1299 cells assessed as increase in monomer to aggregate ratio at 100 nM preincubated for 15 mins irradiated with 7.5 to 10 mW/cm^-2 red light by JC-1 fluorescent probe based flow cytometric analysis (reference value: 1.0+/-0.00); type: cell membranes
Mitochondrial membrane [32] = experiment: Induction of mitochondrial membrane depolarization in human NCI-H1299 cells assessed as increase in monomer to aggregate ratio at 250 nM preincubated for 15 mins irradiated with 7.5 to 10 mW/cm^-2 red light by JC-1 fluorescent probe based flow cytometric analysis (reference value: 1.0+/-0.00); type: cell membranes
[33] = Fluorescence property of the compound in toluene assessed as fluorescence quantum yield by photoluminescence quantum yield spectrometer; type: physicochemical

Structure (SMILES): C/C(=N/NC(=O)OC(C)(C)C)c1c2nc(c(-c3ccccc3)c3ccc([nH]3)c3ccc([nH]3)c(-c3ccccc3)c3ccc1[nH]3)C=C2
Activity [1]: 0.14
Activity [2]: 0.267
Activity [3]: 0.39
IC50 [4]: 94.9 nM
IC50 [5]: 25 nM
Activity (A549 [6]): Non-toxic
Activity (NCI-H1299 [7]): Non-toxic
Activity (A549 [8]): Non-toxic
Activity (NCI-H1299 [9]): Non-toxic
Activity (A549 [10]): Active
Activity (NCI-H1299 [11]): Active
Activity (NCI-H1299 [12]): Active
Activity (A549 [13]): Active
Activity (A549 [14]): 18%
Activity (A549 [15]): 20.8%
Activity (A549 [16]): 21%
Activity (A549 [17]): 17.5%
Activity (A549 [18]): 35.5%
Activity (A549 [19]): 38%
Activity (A549 [20]): 22.8%
Activity (A549 [21]): 26.5%
IC50 (A549 [22]): 373 nM
Activity (NCI-H1299 [23]): >=75%
Activity (NCI-H1299 [24]): 57.9%
Activity (NCI-H1299 [25]): 28.8%
Activity (NCI-H1299 [26]): 20.1%
Activity (NCI-H1299 [27]): 69%
Activity (NCI-H1299 [28]): Active
Activity (Mitochondrial membrane [29]): 39.7
Activity (Mitochondrial membrane [30]): 47.7
Activity (Mitochondrial membrane [31]): 1.7
Activity (Mitochondrial membrane [32]): 4

Structure (SMILES): C/C(=N/NC(=O)OC(C)(C)C)c1c2nc(c(-c3cccc(O)c3)c3ccc([nH]3)c3ccc([nH]3)c(-c3cccc(O)c3)c3ccc1[nH]3)C=C2
Activity [1]: 0.133
Activity [2]: 0.283
Activity [3]: 0.26
IC50 [4]: 140 nM
IC50 [5]: 67.5 nM
Activity (A549 [6]): Non-toxic
Activity (NCI-H1299 [7]): Non-toxic

Continued, in another order:

Activity [33]: 0.197
Structure (SMILES): CC(C)(C)OC(=O)N/N=C(\c1ccccc1)c1c2nc(c(-c3ccc([N+](=O)[O-])cc3)c3ccc([nH]3)c3ccc([nH]3)c(-c3ccc([N+](=O)[O-])cc3)c3ccc1[nH]3)C=C2
Activity [3]: 0.31
IC50 [4]: 2110 nM
IC50 [5]: 2360 nM
Activity (A549 [6]): Non-toxic
Activity (NCI-H1299 [7]): Non-toxic
Activity (A549 [8]): 48.37%
Activity (NCI-H1299 [9]): 51.15%

Activity [33]: 0.002
Structure (SMILES): C/C(=N\Nc1ccc([N+](=O)[O-])cc1[N+](=O)[O-])c1c2nc(c(-c3ccccc3)c3ccc([nH]3)c3ccc([nH]3)c(-c3ccccc3)c3ccc1[nH]3)C=C2
Activity (A549 [6]): Non-toxic
Activity (NCI-H1299 [7]): Non-toxic

Activity [33]: 0.195
Structure (SMILES): C/C(=N/NC(=O)OC(C)(C)C)c1c2nc(c(-c3ccc([N+](=O)[O-])cc3)c3ccc([nH]3)c3ccc([nH]3)c(-c3ccc([N+](=O)[O-])cc3)c3ccc1[nH]3)C=C2
Activity [3]: 0.22
IC50 [4]: 748 nM
IC50 [5]: 310 nM
Activity (A549 [6]): Non-toxic
Activity (NCI-H1299 [7]): Non-toxic
Activity (A549 [8]): 49.14%
Activity (NCI-H1299 [9]): 53.41%

Activity [1]: 0.114
Activity [2]: 0.249
Structure (SMILES): C/C(=N/NC(=O)OC(C)(C)C)c1c2nc(c(-c3ccc(O)cc3)c3ccc([nH]3)c3ccc([nH]3)c(-c3ccc(O)cc3)c3ccc1[nH]3)C=C2
Activity [3]: 0.18
IC50 [4]: 413 nM
IC50 [5]: 145 nM
Activity (A549 [6]): Non-toxic
Activity (NCI-H1299 [7]): Non-toxic
